Among the data in PubChem BioAssay AID330 (DTP/NCI, 2004) are T/C values, retold here.

The subject of the test is P388 leukemia ip, CD2F1 mice, survival T/C. Put plainly: NCI In Vivo Anticancer Drug Screen. Data for tumor model P388 Leukemia (intraperitoneal) in CD2F1 (CDF1) mice. As to conditions: endpoint: median survival time, higher = longer survival. In a few lines: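 Mice carrying the transplanted tumor received test compound or vehicle. Survival was recorded in each group, and the value is the treated-group measurement divided by that of the vehicle-treated control group.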

Setting [1] is: dose: 50.0 mg/kg/injection, schedule: Q01DX009 (ip), vehicle: saline.
Where [2] appears, read: dose: 100.0 mg/kg/injection, schedule: Q01DX009 (ip), vehicle: saline with Tween-80.
Where [3] appears, read: dose: 50.0 mg/kg/injection, schedule: Q01DX005 (ip), vehicle: saline with Tween-80.
Setting [4] is: dose: 100.0 mg/kg/injection, schedule: Q01DX005 (ip), vehicle: saline with Tween-80.
Where [5] appears, read: dose: 200.0 mg/kg/injection, schedule: Q01DX005 (ip), vehicle: saline with Tween-80.
Setting [6] is: dose: 12.5 mg/kg/injection, schedule: Q01DX005 (ip), vehicle: saline with Tween-80.
Where [7] appears, read: dose: 25.0 mg/kg/injection, schedule: Q01DX005 (ip), vehicle: saline with Tween-80.

“And” between values parts separate entries of the source, which are not always exact repeats. Equal entries are not always repeated. Toxic doses and inconclusive results are not listed.

On to `O=c1c(O)c(-c2cc(O)c(O)c(O)c2)oc2cc(O)cc(O)c12`, for which the T/C was 105 % of control (dose: 6.25 mg/kg/injection, schedule: Q01DX009 (ip), vehicle: Klucel (hydroxypropylcellulose) (HPC)); 112 % of control (dose: 12.5 mg/kg/injection, schedule: Q01DX009 (ip), vehicle: Klucel (hydroxypropylcellulose) (HPC)); 124 % of control (dose: 25.0 mg/kg/injection, schedule: Q01DX009 (ip), vehicle: Klucel (hydroxypropylcellulose) (HPC)); 89 % of control (dose: 100.0 mg/kg/injection, schedule: Q01DX009 (ip), vehicle: other); 98 % of control (dose: 200.0 mg/kg/injection, schedule: Q01DX009 (ip), vehicle: other).
Take `CCCS(=O)(=O)Nc1ccc(Nc2c3ccccc3nc3ccccc23)c(OC)c1`: the T/C (dose: 6.25 mg/kg/injection, schedule: Q01DX009 (ip), vehicle: saline) is 118 % of control; the T/C (dose: 25.0 mg/kg/injection, schedule: Q01DX009 (ip), vehicle: saline) is 150 % of control and 160 % of control; the T/C under setting [1] was 150 % of control.
As for `O=S(=O)(O)O.[NH-]C(c1ccccc1)C([NH-])c1ccccc1.[Pt+2]` (stereo not given), the T/C runs as follows: (dose: 1.56 mg/kg/injection, schedule: Q04DX002 (ip), vehicle: saline) 110 % of control; (dose: 6.25 mg/kg/injection, schedule: Q04DX002 (ip), vehicle: saline) 163 % of control; (dose: 12.5 mg/kg/injection, schedule: Q04DX002 (ip), vehicle: saline) 157 % of control and 173 % of control; (dose: 25.0 mg/kg/injection, schedule: Q04DX002 (ip), vehicle: saline) 153 % of control and 169 % of control and 185 % of control.
As for `Cc1ccc(Oc2ccc(C(=O)C(CN(C)C)CN(C)C)cc2)cc1`, the T/C by setting is: (dose: 1.88 mg/kg/injection, schedule: Q01DX005 (ip), vehicle: saline) 107 % of control; (dose: 3.75 mg/kg/injection, schedule: Q01DX005 (ip), vehicle: saline) 110 % of control; (dose: 7.5 mg/kg/injection, schedule: Q01DX005 (ip), vehicle: saline) 112 % of control and 121 % of control.
Turning to `CCC[CH2][Sn]([CH2]CCC)([NH]c1ncnc2[nH]cnc12)[NH]c1ncnc2[nH]cnc12`, the T/C (dose: 1.56 mg/kg/injection, schedule: Q01DX005 (ip), vehicle: Klucel (hydroxypropylcellulose) (HPC)) was 98 % of control; the T/C (dose: 3.12 mg/kg/injection, schedule: Q01DX005 (ip), vehicle: Klucel (hydroxypropylcellulose) (HPC)) is 110 % of control; the T/C (dose: 6.25 mg/kg/injection, schedule: Q01DX005 (ip), vehicle: Klucel (hydroxypropylcellulose) (HPC)) was 121 % of control.
For the compound `O=C(/C=C/C(=O)OCC(Cl)(Cl)Cl)OCC(Cl)(Cl)Cl`, the T/C runs as follows: under setting [2], 100 % of control; (dose: 200.0 mg/kg/injection, schedule: Q01DX009 (ip), vehicle: saline with Tween-80) 114 % of control; (dose: 400.0 mg/kg/injection, schedule: Q01DX009 (ip), vehicle: saline with Tween-80) 106 % of control.
With `COC(=O)C1(Br)CCC1(Br)C(=O)OC` (stereo not given), the T/C runs as follows: (dose: 50.0 mg/kg/injection, schedule: Q01DX009 (ip), vehicle: Klucel (hydroxypropylcellulose) (HPC)) 100 % of control; (dose: 100.0 mg/kg/injection, schedule: Q01DX009 (ip), vehicle: Klucel (hydroxypropylcellulose) (HPC)) 109 % of control; (dose: 200.0 mg/kg/injection, schedule: Q01DX009 (ip), vehicle: Klucel (hydroxypropylcellulose) (HPC)) 103 % of control; (dose: 400.0 mg/kg/injection, schedule: Q01DX009 (ip), vehicle: Klucel (hydroxypropylcellulose) (HPC)) 94 % of control.
For the compound `CC(C(=O)NC(=O)O)S(=O)(=O)O` (stereo not given), the T/C was 101 % of control (dose: 12.5 mg/kg/injection, schedule: Q01DX001 (ip), vehicle: saline with Tween-80) and 103 % of control (dose: 25.0 mg/kg/injection, schedule: Q01DX001 (ip), vehicle: saline with Tween-80).
For the compound `Cn1c2c(c(=O)n(C)c1=O)CN(Cc1ccccc1)CN2`, the T/C reads like this: under setting [3], 95 % of control; under setting [4], 95 % of control; under setting [5], 100 % of control.
With `CCCCCCC(/C=C/c1ccc(Cl)c(Cl)c1)=N\NC(=O)C[n+]1ccccc1`, the T/C is 99 % of control under setting [1]; 101 % of control (dose: 100.0 mg/kg/injection, schedule: Q01DX009 (ip), vehicle: saline); 101 % of control (dose: 200.0 mg/kg/injection, schedule: Q01DX009 (ip), vehicle: saline).
As to `COCC/C=C\CN(C(C)C)C(C)C`, the T/C is 99 % of control (dose: 50.0 mg/kg/injection, schedule: Q01DX009 (ip), vehicle: saline with Tween-80) and 101 % of control under setting [2].
On to `CCN(CC)c1cc(=O)n2ccccc2n1`, for which the T/C is, setting by setting: (dose: 60.0 mg/kg/injection, schedule: Q01DX005 (ip), vehicle: Klucel (hydroxypropylcellulose) (HPC)) 96 % of control; (dose: 120.0 mg/kg/injection, schedule: Q01DX005 (ip), vehicle: Klucel (hydroxypropylcellulose) (HPC)) 100 % of control; (dose: 240.0 mg/kg/injection, schedule: Q01DX005 (ip), vehicle: Klucel (hydroxypropylcellulose) (HPC)) 103 % of control.
Take `CN(CCC(=O)/C(=C\c1ccccc1)c1ccc(Cl)cc1)Cc1ccccc1`: the T/C (dose: 0.4 mg/kg/injection, schedule: Q01DX005 (ip), vehicle: saline with Tween-80) was 101 % of control; the T/C (dose: 0.8 mg/kg/injection, schedule: Q01DX005 (ip), vehicle: saline with Tween-80) is 102 % of control; the T/C (dose: 1.6 mg/kg/injection, schedule: Q01DX005 (ip), vehicle: saline with Tween-80) was 109 % of control; the T/C (dose: 3.12 mg/kg/injection, schedule: Q01DX005 (ip), vehicle: saline with Tween-80) is 109 % of control; the T/C (dose: 6.25 mg/kg/injection, schedule: Q01DX005 (ip), vehicle: saline with Tween-80) was 111 % of control.
Take `O=C(O)c1cc(CCCC(=O)c2cc(C(=O)O)c(O)c3ccccc23)c2ccccc2c1O`: the T/C (dose: 100.0 mg/kg/injection, schedule: Q04DX002 (ip), vehicle: Klucel (hydroxypropylcellulose) (HPC)) was 90 % of control.
For `C=CCN(CC=C)CCSC(=S)NCCOC`, the T/C was 100 % of control (dose: 100.0 mg/kg/injection, schedule: Q04DX003 (ip), vehicle: saline with Tween-80) and 95 % of control (dose: 200.0 mg/kg/injection, schedule: Q04DX003 (ip), vehicle: saline with Tween-80).
As to `CCOC(=O)CC(=O)CC(C(=O)OCC)C(=O)OCC`, the T/C is 98 % of control under setting [3], 104 % of control under setting [4] and 105 % of control under setting [5].
For the compound `O=C(N/N=C\c1cccc2ccccc12)C(=O)N/N=C/c1cccc2ccccc12`, the T/C reads like this: under setting [6], 93 % of control; under setting [7], 91 % of control; under setting [3], 94 % of control; under setting [4], 87 % of control; under setting [5], 91 % of control.
With `CCCCCCCCCCN(CCCCCCCCCC)CC(O)c1ccc2nc3c(cc2c1)CCCC3` (stereo not given), the T/C by setting is: under setting [6], 101 % of control; under setting [7], 101 % of control; under setting [3], 102 % of control and 94 % of control.
On to `COc1ccc2[nH]c(=O)c(C#N)c(C)c2c1`, for which the T/C is, setting by setting: under setting [6], 95 % of control; under setting [7], 91 % of control; under setting [3], 104 % of control and 91 % of control.
